# Laboratory results taken from patent US20190030114A1, “ISOFORM-SPECIFIC CALPAIN INHIBITORS, METHODS OF IDENTIFICATION, AND USES THEREOF” (WESTERN UNIVERSITY OF HEALTH SCIENCES, priority 2014, published 2019).
# Entries after “also recorded” stand apart in the source; their conditions may differ. Read-outs that look alike come from different tables or passages of the source. Residues, ends and D or L forms follow the SMILES beside them. *: point of attachment. Cbz = O=C(OCc1ccccc1)*; CH2F = FC*
# Tests used:
# calpain-1 [1] = biological target: T1, calpain-1 (Homo sapiens, UniProt P07384); settings: cited from earlier work
# T1 sequence (P07384 1-714): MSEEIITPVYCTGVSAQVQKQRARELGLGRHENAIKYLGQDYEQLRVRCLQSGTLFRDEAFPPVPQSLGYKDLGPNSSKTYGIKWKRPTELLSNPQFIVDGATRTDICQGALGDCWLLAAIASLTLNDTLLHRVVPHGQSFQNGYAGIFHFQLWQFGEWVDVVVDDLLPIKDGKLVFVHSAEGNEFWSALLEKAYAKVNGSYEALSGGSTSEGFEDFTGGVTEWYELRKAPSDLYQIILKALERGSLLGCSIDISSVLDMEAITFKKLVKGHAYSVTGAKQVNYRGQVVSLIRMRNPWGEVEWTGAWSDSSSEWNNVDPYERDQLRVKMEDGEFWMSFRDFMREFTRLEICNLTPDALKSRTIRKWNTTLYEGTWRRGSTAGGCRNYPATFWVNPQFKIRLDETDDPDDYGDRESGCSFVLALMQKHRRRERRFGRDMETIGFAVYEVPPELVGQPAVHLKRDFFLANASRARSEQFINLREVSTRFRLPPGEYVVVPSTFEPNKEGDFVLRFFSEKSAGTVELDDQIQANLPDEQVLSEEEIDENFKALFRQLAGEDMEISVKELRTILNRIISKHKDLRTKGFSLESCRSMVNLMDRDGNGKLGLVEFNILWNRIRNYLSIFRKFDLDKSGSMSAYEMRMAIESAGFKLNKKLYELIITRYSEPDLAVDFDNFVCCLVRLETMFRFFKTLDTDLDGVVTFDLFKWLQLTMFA
# T1 sequence (P04632 1-268 partner): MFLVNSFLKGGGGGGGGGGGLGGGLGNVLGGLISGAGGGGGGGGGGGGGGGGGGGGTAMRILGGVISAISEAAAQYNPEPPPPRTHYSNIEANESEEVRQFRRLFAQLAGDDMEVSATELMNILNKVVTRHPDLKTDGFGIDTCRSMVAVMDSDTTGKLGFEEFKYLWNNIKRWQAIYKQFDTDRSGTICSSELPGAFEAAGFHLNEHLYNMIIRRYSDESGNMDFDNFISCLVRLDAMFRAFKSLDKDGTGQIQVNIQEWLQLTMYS
# calpain-2 [2] = biological target: T2, calpain-2 (Homo sapiens, UniProt P17655); settings: cited from earlier work
# T2 sequence (P17655 1-700): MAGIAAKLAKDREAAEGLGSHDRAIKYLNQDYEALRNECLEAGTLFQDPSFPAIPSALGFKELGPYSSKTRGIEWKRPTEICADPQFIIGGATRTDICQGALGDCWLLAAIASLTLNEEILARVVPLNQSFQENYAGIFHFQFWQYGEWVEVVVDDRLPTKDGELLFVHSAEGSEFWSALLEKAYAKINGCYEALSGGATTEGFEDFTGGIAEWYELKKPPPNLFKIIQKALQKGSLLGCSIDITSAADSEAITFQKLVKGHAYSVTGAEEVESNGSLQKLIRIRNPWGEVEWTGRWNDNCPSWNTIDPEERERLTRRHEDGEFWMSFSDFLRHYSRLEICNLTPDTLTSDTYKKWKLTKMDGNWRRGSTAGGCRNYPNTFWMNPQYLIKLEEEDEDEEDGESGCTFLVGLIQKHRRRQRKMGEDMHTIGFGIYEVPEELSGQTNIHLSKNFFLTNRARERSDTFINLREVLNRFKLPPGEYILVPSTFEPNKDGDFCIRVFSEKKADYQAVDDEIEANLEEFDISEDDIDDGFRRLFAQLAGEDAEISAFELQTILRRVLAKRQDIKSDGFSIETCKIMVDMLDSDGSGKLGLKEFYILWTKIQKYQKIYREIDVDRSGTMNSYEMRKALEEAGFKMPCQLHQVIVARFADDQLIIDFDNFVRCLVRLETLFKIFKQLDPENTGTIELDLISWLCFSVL
# T2 sequence (P04632 1-268 partner): T1 sequence (P04632 1-268 partner)
# calpain-1 [3] = biological target: T1, calpain-1; assay: in vitro calpain-1 inhibition, succinic-Leu-Tyr-AMC substrate; format: biochemical; settings: n = 3-5; for Ki: Example 13, read-out: Ki Calpain-1
# Method: (§1) Formula 1, where chiral center 1 is the L-form and chiral center 2 is a racemic mixture of D- and L- in this example was introduced at various concentrations (from 1 nM to 10 μM) into an in vitro mix comprising succinic-Leu-Tyr-AMC and calpain-1 or calpain-2 (Sasaki et al, 1984), and the kinetics of the loss of fluorescence were determined for each of the calpains (Powers et al, 2000). […] Therefore, the assessment of selectivity described herein was different than the prior teaching.
# (§2) Formula 1A, where chiral center 1 is the S-form and chiral center 2 is the S-form was separated from the S-R-form (Formula 1B) using methods that are well-known methods for separating diastereoisomers. Formula 1A, which is also referred to herein as compound 18A, in this example was introduced at various concentrations into an in vitro mix comprising succinic-Leu-Tyr-AMC and μ-calpain or m-calpain (Sasaki et al, 1984), and the kinetics of the loss of fluorescence were determined for each of the calpains.
# calpain-2 [4] = biological target: T2, calpain-2; assay: in vitro calpain-2 inhibition, succinic-Leu-Tyr-AMC substrate; format: biochemical; settings: for Ki: Example 13, read-out: Ki Calpain-2; for Ki / IC50: n = 3-4
# Method: as §1, §2
# [5] = system: stratum radiatum of field CA1 in acute rat hippocampal slices; assay: field EPSP recording, TBS-induced LTP in acute rat hippocampal slices; format: cell-based
# Method: Results are expressed as percent of the average values over a 10 min baseline period and are means±S.E.M. of the indicated number of experiments.
# FIG. 3A: Field recording of excitatory postsynaptic potentials (EPSPs) performed in stratum radiatum of field CA1 in acute rat hippocampal slices in the presence or absence of 200 nM of the calpain-2 selective inhibitor, Formula I, (mCalp-I in the drawing). Preincubation with mCalp-I enhances LTP. Results are expressed as percent of the average values over a 10 min baseline period and are means±S.E.M. of the indicated number of experiments.
# Results are expressed as percent of the average values over the 10 min baseline period and are means±S.E.M. of the indicated number of experiments.
# Generic calpain inhibitors block LTP when administered before LTP induction. Field recording of excitatory postsynaptic potentials (EPSPs; FIG. 2) was performed in stratum radiatum of field CA1 in acute rat hippocampal slices.
# A calpain 2-selective inhibitor enhances LTP. […]
# [6] = system: cultured cortical neurons; assay: Bic- and 4-AP-induced neuroprotection against starvation, Hoechst staining; format: cell-based; settings: mCalp-I 200 nM
# Text: Neuronal death was observed and quantified by Hoechst staining. 300-500 neurons were counted for each group in three to 6 independent experiments. *p<0.05; ns, no significant difference; one-way ANOVA followed by Bonferroni test. n=3-6. Error Bar indicates SEM
# Neuronal death was observed and quantified by Hoechst staining. 300-500 neurons were counted for each group in three to 6 independent experiments. *p<0.05; ns, no significant difference; one-way ANOVA followed by Bonferroni test. n=3-6. Error Bar indicates SEM (FIG. 6).
# Akt and ERK = Akt and ERK phosphorylation in cultured cortical neurons, immunoblot; format: cell-based; settings: for Akt and ERK phosphorylation (pAkt/Akt, pERK/ERK): peptide 1.5 μM, 30 min
# Text: Pre-treatment with Calpain-2 C-terminal peptide had no effect on Akt and ERK levels. Columns represent means±S.E.M. n=3-6. *p<0.05. One-way ANOVA followed by Bonferroni test.
# [7] = system: cultured cortical neurons; assay: neuroprotection against starvation and oxidative stress (H2O2); format: cell-based; settings: 1.5 μM
# Text: Columns represent means±S.E.M. n=4. *p<0.05; **p<0.01; ***p<0.001. One-way ANOVA followed by Bonferroni test.
compound,measurement,setting,value
"CCCNC(=O)C(=O)C(Cc1ccccc1)NC(=O)C(CC(C)C)NC(=O)OCc1ccccc1 (stereo not drawn) [Formula XII, z-Leu-Phe-CONH-nPr]",Ki,"calpain-1 [1]; Li et al, 1996, read-out: Ki for calpain-1 (μ-calpain), literature",50 nM
same,Ki,"calpain-1 [1]; U.S. Pat. No. 6,235,929, column 14, Table I, read-out: Ki for calpain-1",15000 nM
same,Ki,"calpain-2 [2]; Li et al, 1996, read-out: Ki for calpain-2 (m-calpain), literature",350 nM
CC[C@@H](NC(=O)[C@H](CC(C)C)NC(=O)OCc1ccccc1)C(=O)C(=O)NCc1cc(OC)cc(OC)c1 [Formula 1B],Ki,calpain-1 [3],514000 ± 151000 nM
same,IC50,calpain-1 [3],569000 nM
same,Ratio KiCalpain-1/KiCalpain-2,calpain-2 [4],34
same,Ki,calpain-2 [4],15600 ± 9200 nM
same,IC50,calpain-2 [4],19400 nM
"CC(C)C(NC(=O)OCc1ccccc1)C(=O)NC(C=O)Cc1ccccc1 (stereo not drawn) [Calpain inhibitor III, Z-Val-Phe-CHO, reference compound] (Cbz-Val-Phe-aldehyde; configuration not given here)",LTP after theta-burst stimulation,[5]; 10 μM added prior to TBS,blocks LTP; also recorded: prevented the formation of LTP
same,short-term potentiation (increase in fEPSPs that follows TBS),[5]; 10 μM added prior to TBS,did not block short-term potentiation
same,blocked Bic- and 4-AP-induced neuroprotection against starvation,[6],blocked
same,effect of calpain-1 peptide on Akt and ERK,Akt and ERK; pre-treatment 10 μM,blocks the effect of calpain-1 peptide on Akt and ERK
same,Ki,"calpain-2 [2]; stated for generic inhibitor, source not given, read-out: Ki for calpain-2",~8 nM
"CC(C)C[C@H](NC(=O)OCc1ccccc1)C(=O)N[C@@H](CC(C)C)C(=O)N[C@@H](Cc1ccc(O)cc1)C(=O)CF [Calpain inhibitor IV, carboxybenzyl-Leu-Leu-Tyr-CH2-F] (Cbz-Leu-Leu-Tyr-CH2F)",selectivity among calpains,"calpain-1 [1]; Powers et al, 2002, effect appears to vary with cell-type",some selectivity for calpain-1
"Calpain-1 C-terminal peptide: calpain-1 PDZ-binding domain specific peptide: VTFDLFKWLQLTMFA, or fragment or modification thereof",LTP in rat hippocampal slices on un-scaffolding calpain-1,[5]; calpain-1 PDZ-peptide,greater LTP
same,"Akt and ERK phosphorylation (pAkt/Akt, pERK/ERK)",Akt and ERK,increased Akt and ERK phosphorylation
same,neuroprotection against H2O2 insult,[7],neuroprotection against H2O2 insult
same,neuroprotection against starvation,[7],neuroprotection against starvation
"Calpain-2 C-terminal peptide: calpain-2 PDZ-binding domain specific peptide: TIQLDLISWLSFSVL, or fragment or modification thereof","Akt and ERK phosphorylation (pAkt/Akt, pERK/ERK)",Akt and ERK,no effect
CC[C@H](NC(=O)[C@H](CC(C)C)NC(=O)OCc1ccccc1)C(=O)C(=O)NCc1cc(OC)cc(OC)c1 [Formula 1A],Ki,calpain-1 [3],181 ± 73 nM
same,IC50,calpain-1 [3],379 nM
same,Ratio KiCalpain-1/KiCalpain-2,calpain-2 [4],23.2
same,Ki,calpain-2 [4],7.8 ± 2.5 nM
same,"difference in activity between the two diasteriomers, inhibition of calpain-2",calpain-2 [4]; Formula 1A versus S-R-form,2000 fold
same,IC50,calpain-2 [4],193 nM
